Data reported in patent publication US20050154061A1, “Acetic acid derivatives” (Bayer Aktiengesellschaft, priority 2001, published 2005).

target: T1, GAL4-PPARδ chimera (Homo sapiens, UniProt Q03181); experiment: Cellular transactivation assay (luciferase reporter); format: cell-based; settings: CHO cells stably expressing GAL4-PPARδ chimera and luciferase reporter; 24 hours stimulation
T1 construct: expressed in transfected cells
Text: Cellular Transactivation Assay:
A cellular assay is used to identify activators of the peroxisome proliferator-activated receptor delta (PPAR-delta).
Since mammalian cells contain different endogenous nuclear receptors which may complicate an unambiguous interpretation of the results, an established chimera system is used in which the ligand binding domain of the human PPARδ receptor is fused to the DNA binding domain of the yeast transcription factor GAL4. The resulting GAL4-PPARδ chimera is co-transfected and stably expressed in CHO cells having a reporter construct.
The reporter construct, which contains five copies of the GAL4 binding site upstream of a thymidine kinase promoter, expresses firefly luciferase (Photinus pyralis) following activation and binding of GAL4-PPARδ.
Transactivation Assay (Luciferase Reporter):
CHO (chinese hamster ovary) cells are sown in CHO-A-SFM medium (GIBCO), supplemented by 2.5% foetal calf serum, 1% penicillin/streptomycin (GIBCO), at a cell density of 2×10^3 cells per well in a 384 well plate (Greiner). The cells are cultivated at 37° C. for 48 h and then stimulated. To this end, the substances to be tested are taken up in the abovementioned medium and added to the cells. After a stimulation period of 24 hours, the luciferase activity is measured using a video camera. The relative light units measured give, as a function of the substance concentration, a sigmoidal stimulation curve.

T1 sequence (Q03181 with tags, fused parts or gaps limits assumed): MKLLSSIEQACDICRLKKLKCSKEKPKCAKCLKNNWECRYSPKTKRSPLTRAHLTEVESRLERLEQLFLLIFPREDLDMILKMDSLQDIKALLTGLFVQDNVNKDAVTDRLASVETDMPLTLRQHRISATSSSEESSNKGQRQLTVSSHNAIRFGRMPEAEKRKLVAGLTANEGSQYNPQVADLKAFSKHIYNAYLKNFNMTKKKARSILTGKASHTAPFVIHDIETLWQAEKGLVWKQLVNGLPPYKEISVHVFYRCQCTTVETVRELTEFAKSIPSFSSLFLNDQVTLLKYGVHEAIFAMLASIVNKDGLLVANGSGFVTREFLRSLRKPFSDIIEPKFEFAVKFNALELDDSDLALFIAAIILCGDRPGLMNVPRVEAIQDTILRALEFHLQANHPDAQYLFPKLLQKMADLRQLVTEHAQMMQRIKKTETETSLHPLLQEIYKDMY

| EC50 | Structure (SMILES) |
| --- | --- |
| 1 to 100 nM | Cc1ccc(NC(=O)CN(Cc2ccc(OC(C)C(=O)O)c(C)c2)C2CCCCC2)c(C)c1 (stereo not shown) [Example 6, 2-[4-[[[2-[(2,4-Dimethylphenyl)amino]-2-oxoethyl]cyclohexylamino]methyl]-2-methylphenoxy]propanoic Acid] |
| 1 to 100 nM | CC(C)(Oc1ccc(CN(CC(=O)Nc2ccc(Cl)cc2Cl)C2CCCC2)cc1)C(=O)O [Example 9] |
| 1 to 100 nM | Cc1cc(CN(CC(=O)Nc2ccc(Cl)cc2Cl)C2CCCC2)ccc1OC(C)C(=O)O (stereo not shown) [Example 8] |

The next lines start with the compound.

| Structure (SMILES) | EC50 |
| --- | --- |
| Cc1cc(CN(CC(=O)Nc2ccc(Cl)cc2Cl)C2C(C)CCC2C)ccc1OC(C)(C)C(=O)O (stereo not shown) [Example 3, 2-[4-[[[2-[(2,4-Dichlorophenyl)amino]-2-oxoethyl]-(2,5-dimethylcyclopentyl)amino]methyl]-2-methylphenoxy]-2-methylpropanoic Acid] | 1 to 100 nM |
| Cc1cc(CN(CC(=O)Nc2ccc(Cl)cc2Cl)C2CCCCC2)ccc1OC(C)(C)C(=O)O [Example 1, 2-[4-[[[2-[(2,4-Dichlorophenyl)amino]-2-oxoethyl]cyclohexylamino]methyl]-2-methylphenoxy]-2-methylpropanoic Acid] | 1 to 100 nM |
| Cc1cc(CN(CC(=O)Nc2ccc(Cl)cc2Cl)C2CCCCC2)ccc1OCC(=O)O [Example 2, 2-[4-[[[2-[(2,4-Dichlorophenyl)amino]-2-oxoethyl]cyclohexylamino]methyl]-2-methylphenoxy]acetic Acid] | 1 to 100 nM |
| Cc1cc(CN(CCNc2ccc(Cl)cc2Cl)C2CCCCC2)ccc1OC(C)(C)C(=O)O [Example 4, 2-{4-[(Cyclohexyl{2-[(2,4-dichlorophenyl)amino]ethyl}amino)methyl]-2-methylphenoxy}-2-methylpropanoic Acid] | 1 to 100 nM |
